Experimental data taken from US8476253B2, “Amide derivative” (Daiichi Sankyo Company, Limited, priority 2009, dated 2013).
pKi: −log10 of the molar value. Structures can show the parent of a compound that is named as a salt.

Experiments:
substance P receptor = molecular target: T1, substance P receptor (Cavia porcellus, UniProt P30547); assay: Test for binding to guinea-pig substance P receptor (crude lung membrane sample); settings: crude guinea-pig lung membrane sample, [3H]substance P; Ki from IC50 and Kd; read-out: Ki
T1 construct: A preparation of a crude lung membrane sample was prepared; from tissue; host or cells: guinea-pig lung (crude membrane sample)
Protocol: A preparation of a crude lung membrane sample was prepared, and a test for binding of a test substance to the sample was performed according to the method described in EP0336230A2.
The binding effect of the test substance to a substance P receptor was calculated as an affinity (Ki) of the test substance for the substance P receptor from a 50% binding concentration (IC50) and an affinity (Kd) of [^3H]substance P for the substance P receptor.

muscarine M3 receptor = assay: Effect of suppressing methacholine-induced airway contraction (in vivo, intratracheal administration); set-up: species or system guinea pig; settings: guinea pigs, intratracheal administration 60 minutes before 30 μg/kg i.v. methacholine; AUC of increase in airway pressure over 10 minutes
Procedure, shortened: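 Anesthetized, gallamine-paralysed, ventilated male Hartley guinea pigs (350–550 g); compound in 5% glucose given intratracheally 60 min before 30 μg/kg i.v. methacholine. Airway pressure AUC over 10 min scored; ID50 from inhibition versus 5% glucose vehicle group.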

neurokinin NK2 receptor = molecular target: T2, neurokinin NK2 receptor (Cavia porcellus, UniProt Q64077); assay: Effect of suppressing neurokinin A-induced airway contraction (in vivo, intratracheal administration); set-up: species or system guinea pig; settings: guinea pigs, intratracheal administration 60 minutes before 4 μg/kg i.v. NKA, AUC of increase in airway pressure over 10 minutes; for ED50: guinea pig, read-out: ID50 (the source's name)
T2 construct: Using healthy guinea pigs (body weight, 350 to 550 g; Hartley male guinea pigs); from tissue; host or cells: live anaesthetised Hartley male guinea pigs (airway, in vivo)
T2 sequence (Q64077 1-402): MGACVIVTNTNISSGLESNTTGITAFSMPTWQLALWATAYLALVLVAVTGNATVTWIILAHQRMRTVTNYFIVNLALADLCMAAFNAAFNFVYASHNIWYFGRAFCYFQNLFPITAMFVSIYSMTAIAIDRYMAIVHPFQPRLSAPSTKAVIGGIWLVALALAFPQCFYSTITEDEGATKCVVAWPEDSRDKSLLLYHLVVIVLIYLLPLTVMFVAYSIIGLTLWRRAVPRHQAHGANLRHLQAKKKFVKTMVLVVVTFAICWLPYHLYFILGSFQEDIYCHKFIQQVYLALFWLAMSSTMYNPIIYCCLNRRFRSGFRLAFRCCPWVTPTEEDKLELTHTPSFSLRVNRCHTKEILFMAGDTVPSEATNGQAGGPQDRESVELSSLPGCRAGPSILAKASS
Procedure, shortened: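 Anesthetized, gallamine-paralysed, ventilated male Hartley guinea pigs received compound in 5% glucose intratracheally 60 minutes before 4 μg/kg NKA i.v. AUC of airway pressure increase over 10 minutes gave inhibition versus vehicle controls, expressed as ID50.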

T1 sequence (P30547 whole entry): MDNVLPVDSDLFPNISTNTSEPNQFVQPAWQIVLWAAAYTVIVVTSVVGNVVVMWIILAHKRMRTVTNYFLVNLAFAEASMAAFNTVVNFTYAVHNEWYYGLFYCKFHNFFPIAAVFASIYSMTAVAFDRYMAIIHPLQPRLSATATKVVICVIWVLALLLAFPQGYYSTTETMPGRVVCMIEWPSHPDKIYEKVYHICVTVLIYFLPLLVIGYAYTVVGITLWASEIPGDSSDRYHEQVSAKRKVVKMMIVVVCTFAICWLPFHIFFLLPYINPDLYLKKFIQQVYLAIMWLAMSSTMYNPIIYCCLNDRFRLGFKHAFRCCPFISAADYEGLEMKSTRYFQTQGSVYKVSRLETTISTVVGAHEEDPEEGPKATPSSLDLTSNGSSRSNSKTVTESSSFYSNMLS

For CN(CCN1CCC(OC(=O)Nc2ccccc2-c2ccccc2)CC1)C(=O)CCCCCNc1ccc(C(=O)N(C)CCN(C)C(=O)CO[C@H]2Cc3ccccc3C23CCN(CC[C@@]2(c4ccc(F)cc4)CN(C(=O)c4cc(C(F)(F)F)cc(C(F)(F)F)c4)CO2)CC3)cc1 [Example 15, 1-(2-{[6-({4-[{2-[({[(2S)-1-{2-[(5R)-3-[3,5-Bis(trifluoromethyl)benzoyl]-5-(4-fluorophenyl)-1,3-oxazolidin-5-yl]ethyl}-2,3-dihydrospiro[indene-1,4′-piperidin]-2-yl]oxy}acetyl)(methyl)amino]ethyl}(methyl)carbamoyl]phenyl}amino)hexanoyl](methyl)amino}ethyl)piperidin-4-yl biphenyl-2-ylcarbamate], the pKi (substance P receptor) was 8.82, the ID50 (muscarine M3 receptor) was 37.5 µg/kg and the ID50 (neurokinin NK2 receptor) was 37.7 µg/kg.
Work on Cc1cc(NCCCCCC(=O)N(C)CCN2CCC(OC(=O)Nc3ccccc3-c3ccccc3)CC2)ccc1C(=O)N(C)CCCN(C)C(=O)CO[C@H]1Cc2ccccc2C12CCN(CC[C@@]1(c3ccc(F)cc3)CN(C(=O)c3cc(C(F)(F)F)cc(C(F)(F)F)c3)CO1)CC2 [Example 18, 1-(2-{[6-({4-[{3-[({[(2S)-1′-{2-[(5R)-3-[3,5-Bis(trifluoromethyl)benzoyl]-5-(4-fluorophenyl)-1,3-oxazolidin-5-yl]ethyl}-2,3-dihydrospiro[indene-1,4′-piperidin]-2-yl]oxy}acetyl)(methyl)amino]propyl}(methyl)carbamoyl]-3-methylphenyl}amino)hexanoyl](methyl)amino}ethyl)piperidin-4-yl biphenyl-2-ylcarbamate trihydrochloride] yielded a pKi (substance P receptor) of 8.74, an ID50 (muscarine M3 receptor) of 38.9 µg/kg and an ED50 (neurokinin NK2 receptor) of 0.0453 mg/kg.
Work on CN(CCN1CCC(OC(=O)Nc2ccccc2-c2ccccc2)CC1)C(=O)CCCCCNc1ncc(C(=O)N(C)CCCN(C)C(=O)CO[C@H]2Cc3ccccc3C23CCN(CC[C@@]2(c4ccc(F)cc4)CN(C(=O)c4cc(C(F)(F)F)cc(C(F)(F)F)c4)CO2)CC3)cn1 [Example 14, 1-(2-{[6-({5-[{3-[({[(2S)-1′-{2-[(5R)-3-[3,5-Bis(trifluoromethyl)benzoyl]-5-(4-fluorophenyl)-1,3-oxazolidin-5-yl]ethyl}-2,3-dihydrospiro[indene-1,4′-piperidin]-2-yl]oxy}acetyl)(methyl)amino]propyl}(methyl)carbamoyl]pyrimidin-2-yl}amino)hexanoyl](methyl)amino}ethyl)piperidin-4-yl biphenyl-2-ylcarbamate trihydrochloride] yielded a pKi (substance P receptor) of 8.72, an ID50 (muscarine M3 receptor) of 12.9 µg/kg and an ED50 (neurokinin NK2 receptor) of 0.0284 mg/kg.
CN(CCN1CCC(OC(=O)Nc2ccccc2-c2ccccc2)CC1)C(=O)CCCCCNc1ccc(C(=O)N(C)CCCN(C)C(=O)CO[C@H]2Cc3ccccc3C23CCN(CC[C@@]2(c4ccc(F)cc4)CN(C(=O)c4cc(C(F)(F)F)cc(C(F)(F)F)c4)CO2)CC3)nc1 [Example 9, 1-(2-{[6-({6-[{3-[({[(2S)-1′-{2-[(5R)-3-[3,5-Bis(trifluoromethyl)benzoyl]-5-(4-fluorophenyl)-1,3-oxazolidin-5-yl]ethyl}-2,3-dihydrospiro[indene-1,4′-piperidin]-2-yl]oxy}acetyl)(methyl)amino]propyl}(methyl)carbamoyl]pyridin-3-yl}amino)hexanoyl](methyl)amino}ethyl)piperidin-4-yl biphenyl-2-ylcarbamate] was tested, and the pKi (substance P receptor) was 8.68, the ID50 (muscarine M3 receptor) was 16.4 µg/kg and the ED50 (neurokinin NK2 receptor) was 0.0374 mg/kg.
